# US20090106856A1, “Selection System for Wheat” (BASF PLANT SCIENCE GMBH, priority 2005, published 2009)
# Experiments:
# wheat in vitro shoots = assay: Killing curve: rooting of in vitro shoots; format: in vivo, Triticum aestivum
# Description: […] The effect of selection agents was observed two and tree weeks later. Number of plantlets with growing roots and green leaves were scored.
# In vitro regenerated shoots from media lacking the selection compounds were collected and transferred on medium for rooting (½ MS salts hormone free). Roots formation, growth of the shoots and leaves elongation was scored two and four weeks later after sub culturing of these shoots to the medium supplemented with D-amino acids (Table 5).
# [1] = system: wheat variety Canon immature embryos / embryogenic callus; assay: Agrobacterium-mediated transformation with dsdA constructs and selection of transgenic plants; format: cell-based, Triticum aestivum
# Method: Explants were washed with PAW-Inf. medium and immersed in the above-described bacterial suspension for 2 h at 26° C. At the end of infection the explants were placed with scutellum side up on PAW-1 medium. The residual bacterial suspension is removed by pipeting out and air-drying of the infected embryos by opening plates for 15 min on the sterile banch. Plates were sealed with Parafilm and placed in thermostat at 26° C. in the dark for 5-6 days co-cultivation.
# After co-cultivation period the explants were washed with sterile water and 500 mg/L Cefotaxime and filter paper dried before being transferred to PAW-2 callus induction-recovery medium containing 160 mg/l Timentin for 14 days (7 days dark/7 days semi light; 13.2 μmol m^−2s^−1). Explants with embryogenic callus were subculture to PAW-2 callus-proliferation medium containing 160 mg/l Timentin and corresponding selection 5 mM D-serine or 5 mM D-alanine or 3 mg/l bialaphos. In some experiments the selection on D-amino acids was starting on PAW-2 callus induction medium 0, 7, 14 and 21 days after co cultivation. Embryogenic callus was subculture twice on fresh selective medium for callus maintaining and regeneration on PAW-4 medium with corresponding selection. Cultures were maintained at 23° C. on light 60.2 μmol m^−2s^−1. Regenerated shoots were subculture to PAW-5 hormone free medium with corresponding selection (5 mM D-serine or 5 mM D-alanine or 3 mg/l bialaphos) for further growth and rooting. All media used in the transformation experiments were filter sterilized and are listed in above. After analyses transgenic plants were transferred to soil and placed for further growth in greenhouse. 1.4 Molecular and expression studies of the transgenic plants
# Freshly isolated immature embryos from Canon were inoculated with Agrobacterium. In all experiments Agrobacterium tumefacience LBA4404 (pSB1/pRLM167) (SEQ ID NO: 11) was used. The pRLM167 is a super binary vector containing p-ZmUBI+I::c-dsdA::t-OCS and p-ZmUBI+I::c-PAT::t-OCS selectable marker genes in expression cassettes (FIG. 1). Following co cultivation the explants were given a chance to recover for 14 days on callus induction selection free medium containing 160 mg/l Timentin to inhibit bacterial growth. Under these conditions 59% to 76% of the embryogenic callus developed over the all surface of immature embryos. Embryogenic callus was split in two and transferred to two the corresponding selection medium containing 5-mM D-serine or 3 mg/l bialaphos. During subsequent growth of callus, regeneration of plantlets, shoots elongation and roots formation the respective selection pressure was maintained in each of the corresponding medium. After 7 weeks of selection 38%-47% of the embryogenic calli regenerated with plants when selected on bialaphos or on D-serine respectively. Further selection of the regenerants was performed during the elongation and rooting of the regenerants for an additional 3 weeks. Intact in vitro transgenic shoots were selected within 10-12 weeks after co cultivation.
# Freshly isolated immature embryos from Canon were inoculated with Agrobacterium. In all experiments Agrobacterium tumefacience super binary vector system based on LBA4404 (pSB1) was used. The constructs pRLM179, pRLM166, pRLM151 (FIG. 2. I, II and III) containing dsdA selectable marker gene alone or with a second gene (ahas or gusINT) were used for transformation. The explants were cultured on selection medium right away after co-cultivation with Agrobacterium or were cultivated on callus induction—recovery medium for 7, 14 and 21 days containing only 160 mg/l Timentin for inhibiting bacterial growth. Furthermore calli were sub cultured to fresh selection PAW-2 medium for proliferation. Embryogenic calli were transferred on PAW-4 selection medium for regeneration 5-6 weeks after transformation. The emerging plantlets were further grown and rooted on PAW-5 hormone free selection medium. […]
# [2] = system: non-transgenic wheat plants; assay: D-serine as a nitrogen source in hydroponics; format: in vivo, Triticum aestivum
# Method: T1 and T2 transgenic progenies were grown on hydroponics system where hydroponics solution (Gamborg and Wetter, 1975) was modified by replacing nitrogen with D-serine in five different concentrations (20, 30, 50 70 and 100 mM). Transgenic progenies and control seedlings were grown also on standard hydroponics solution as controls. The dry weigh of all 14 days old seedlings was measured.
# Catabolic products of D-serine deaminase are ammonium and pyruvate—key compounds in plant metabolism. Theoretically, transgenic plants equipped with a functional dsdA gene are expected to utilize D-serine as a nitrogen source. We investigated this phenomenon in a hydroponic growth system by exchanging the nitrogen supply with D-serine. T2 progenies representing several independent transgenic events were subjected to two sets of hydroponic experiments.
# The first hydroponics experiments were performed with plants from three independent transgenic lines 2256, 2258 and 2264 carrying the dsdA and ahas selectable marker genes and a range of D-serine concentrations (FIG. 15 I). […] Statistically significant differences between controls and transgenic plants on corresponding concentrations of D-serine were detected. Two of these transgenic lines were inhibited in all tested D-serine concentrations. […]
# [3] = construct pRLM167 (dsdA/pat), selection on 5 mM D-serine or 3 mg/l bialaphos
# [4] = pRLM179 (dsdA/AHAS), 3 mM, selection started 21 days after co-cultivation
# [5] = pRLM179 (dsdA/AHAS), 5 mM, selection started 21 days after co-cultivation
# [6] = pRLM179 (dsdA/AHAS), 10 mM, selection started 21 days after co-cultivation
smiles,measurement,setting,value
N[C@H](CO)C(=O)O [D-serine],root formation of non-transgenic shoots,wheat in vitro shoots; 5 mM,not able to form roots
same,Rooted Shoots (%),"wheat in vitro shoots; Bobwhite, 1 mM",64%
same,Rooted Shoots (%),"wheat in vitro shoots; Bobwhite, 3 mM",24%
same,Rooted Shoots (%),"wheat in vitro shoots; Bobwhite, 5 mM",3%
same,Rooted Shoots (%),"wheat in vitro shoots; Bobwhite, 10 mM",0%
same,Rooted Shoots (%),"wheat in vitro shoots; Bobwhite, 15 mM",0%
same,Rooted Shoots (%),"wheat in vitro shoots; Bobwhite, 25 mM",0%
same,Rooted Shoots (%),"wheat in vitro shoots; Canon, 1 mM",56%
same,Rooted Shoots (%),"wheat in vitro shoots; Canon, 3 mM",16%
same,Rooted Shoots (%),"wheat in vitro shoots; Canon, 5 mM",2%
same,Rooted Shoots (%),"wheat in vitro shoots; Canon, 10 mM",0%
same,Rooted Shoots (%),"wheat in vitro shoots; Canon, 15 mM",0%
same,Rooted Shoots (%),"wheat in vitro shoots; Canon, 25 mM",0%
same,ER Escape Rate (% of non-transgenic regenerants out of all selected plants),[1]; [3],17%
same,TE Transformation Efficiency (% of transgenic plants out of the explants),[1]; [3],2.1%
same,Average transformation efficiencies for both constructs,"[1]; dsdA constructs with ahas or gusINT, selection on D-serine",about 1%
same,TE (%) Transformation Efficiency,"[1]; pRLM166, 5 mM, start of selection 21 days",0.69%
same,ER (%) Escapes Rate,[1]; [4],100%
same,TE (%) Transformation Efficiency,[1]; [4],0%
same,ER (%) Escapes Rate,[1]; [5],25%
same,TE (%) Transformation Efficiency,[1]; [5],1.39%
same,ER (%) Escapes Rate,[1]; [6],0%
same,TE (%) Transformation Efficiency,[1]; [6],0.77%
same,growth of non-transgenic control plants in hydroponics,"[2]; hydroponics solution supplemented with 30, 50 and 70 mM",not able to grow
same,growth of non-transgenic plants in hydroponics,"[2]; nitrogen replaced by D-serine, all tested concentrations (20, 30, 50, 70 and 100 mM)",fully inhibited
